Measurements from ChEMBL document CHEMBL1132844, “Assessment of substitution in the second pharmacophore of Dmt-Tic analogues” (Bioorg Med Chem Lett, 2000).
Activity calls are given as the source filed them. The calls are words filed in the database; no cut-off is given here. Square brackets hold non-standard residues; d marks the D form. Peptide text beside a SMILES is read from it. ξ: configuration not given here. Dmt = Cc1cc(O)cc(C)c1C[C@H](N)C(=O)O; ξTic = O=C(O)C1Cc2ccccc2CN1

How the values were obtained:
[1] = molecular target: T1, Delta-type opioid receptor (Mus musculus, UniProt P32300); assay: (§1) Negative logarithm of the molar concentration of delta receptor was determined in mouse vas deferens; settings: read-out: pA2 (converted)
T1 sequence (P32300 whole entry): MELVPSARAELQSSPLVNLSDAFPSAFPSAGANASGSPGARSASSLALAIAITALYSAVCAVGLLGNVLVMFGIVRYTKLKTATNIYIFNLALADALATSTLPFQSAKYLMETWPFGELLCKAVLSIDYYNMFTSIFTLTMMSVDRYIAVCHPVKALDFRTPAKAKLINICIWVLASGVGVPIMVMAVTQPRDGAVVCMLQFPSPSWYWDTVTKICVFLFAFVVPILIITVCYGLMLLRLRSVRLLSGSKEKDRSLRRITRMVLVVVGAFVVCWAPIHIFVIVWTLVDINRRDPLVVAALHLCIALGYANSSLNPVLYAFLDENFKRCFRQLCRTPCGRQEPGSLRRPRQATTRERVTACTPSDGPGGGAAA

Mu-type opioid receptor [2] = molecular target: T2, Mu-type opioid receptor (Cavia porcellus, UniProt P97266); assay: Negative logarithm of the molar concentration for agonist activity at mu receptor was determined in guinea pig ileum; type: functional, tissue-based
T2 sequence (P97266 whole entry): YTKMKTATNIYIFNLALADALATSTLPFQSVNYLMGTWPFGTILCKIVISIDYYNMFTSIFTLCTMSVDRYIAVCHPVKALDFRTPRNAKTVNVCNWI

[3] = molecular target: Delta-type opioid receptor (Mus musculus) (UniProt P32300)
Delta-type opioid receptor (Mus musculus), sequence (P32300 whole entry): as the sequence (P32300 whole entry) above

[4] = molecular target: Delta-type opioid receptor (Mus musculus) (UniProt P32300); assay: Negative logarithm of the molar concentration of delta receptor was determined in mouse vas deferens; i represents inactivity up to 1 mM; type: functional
Mu-type opioid receptor [5] = molecular target: T2, Mu-type opioid receptor; assay: Negative logarithm of the molar concentration for agonist activity at Opioid receptor mu 1 was determined in guinea pig ileum; type: functional, tissue-based
[6] = molecular target: T1, Delta-type opioid receptor; assay: as §1; type: functional; settings: read-out: pA2 (converted)

SMILES	Kb [1]	EC50 (Mu-type opioid receptor [2])	Log EC50 [3]	Log EC50 [4]	EC50 (Mu-type opioid receptor [5])	Kb [6]
Cc1cc(O)cc(C)c1C[C@H](N)C(=O)N1Cc2ccccc2CC1COCc1ccccc1 (some centres undefined)	13.5 nM	525 nM	inactive			
Cc1cc(O)cc(C)c1C[C@H](N)C(=O)N1CCc2ccccc2C1	38.9 nM	490 nM		inactive		
Cc1cc(O)cc(C)c1C[C@H](N)C(=O)N1CCc2ccc(F)cc2C1	617 nM	631 nM	inactive			
Cc1cc(O)cc(C)c1C[C@H](N)C(=O)N1Cc2ccccc2CC1C(N)=O (some centres undefined) (H-[Dmt]-[ξTic]-NH2)				inactive	> 10000 nM	63.1 nM
C[C@@H](NC(=O)[C@@H](N)Cc1ccc(O)cc1)C(=O)N[C@@H](Cc1ccccc1)C(=O)NCC(=O)N[C@@H](Cc1ccc(O)cc1)C(=O)N1CCC[C@H]1C(=O)N[C@@H](CO)C(N)=O [DERMORPHIN]		1.58 nM				
Cc1cc(O)cc(C)c1C[C@H](N)C(=O)N1Cc2ccc(F)cc2CC1C(=O)O (some centres undefined)	35.5 nM	813 nM	inactive			
Cc1cc(O)cc(C)c1C[C@H](N)C(=O)N1Cc2ccccc2CC1CO (some centres undefined)				inactive	> 10000 nM	100 nM
